Assay results as given in patent publication US12441690B2, “Benzamide derivative compound, method for preparing same, and pharmaceutical composition for treating or preventing inflammatory disease containing same as active ingredient” (SEOUL NATIONAL UNIVERSITY R&DB FOUNDATION, priority 2017, dated 2025).

target: PDE4B enzyme (Homo sapiens (Human), UniProt Q07343); experiment: PDE4B inhibitory activity, LANCE Ultra cAMP assay; type: biochemical; settings: 50% inhibition from cAMP to 5′AMP
Description: In order to evaluate the PDE4B inhibitory activity of the compounds according to the present invention, the following experiment was performed using LANCE Ultra cAMP assay kit (Perkin Elmer, U.S.A).
Particularly, 5 μl of the 3 nM cAMP dissolved reaction buffer was added to each reaction well (LANCE Ultra cAMP assay kit). Then, each example compound dilution solution (2.5 μl) and PDE4B enzyme (0.1 ng/well, BPS Biosciences, San Diego, U.S.A) were added to the well, followed by incubation for 1 hour at 37° C. Next, 5 μl of ULight-anti-cAMP detection reactant supplemented with 5 μl of Eu-cAMP tracer and 1 mM IBMX (LANCE Ultra cAMP assay kit) was added thereto, followed by incubation for 1 hour at 37° C.

Chain of PDE4B enzyme (Q07343 whole entry): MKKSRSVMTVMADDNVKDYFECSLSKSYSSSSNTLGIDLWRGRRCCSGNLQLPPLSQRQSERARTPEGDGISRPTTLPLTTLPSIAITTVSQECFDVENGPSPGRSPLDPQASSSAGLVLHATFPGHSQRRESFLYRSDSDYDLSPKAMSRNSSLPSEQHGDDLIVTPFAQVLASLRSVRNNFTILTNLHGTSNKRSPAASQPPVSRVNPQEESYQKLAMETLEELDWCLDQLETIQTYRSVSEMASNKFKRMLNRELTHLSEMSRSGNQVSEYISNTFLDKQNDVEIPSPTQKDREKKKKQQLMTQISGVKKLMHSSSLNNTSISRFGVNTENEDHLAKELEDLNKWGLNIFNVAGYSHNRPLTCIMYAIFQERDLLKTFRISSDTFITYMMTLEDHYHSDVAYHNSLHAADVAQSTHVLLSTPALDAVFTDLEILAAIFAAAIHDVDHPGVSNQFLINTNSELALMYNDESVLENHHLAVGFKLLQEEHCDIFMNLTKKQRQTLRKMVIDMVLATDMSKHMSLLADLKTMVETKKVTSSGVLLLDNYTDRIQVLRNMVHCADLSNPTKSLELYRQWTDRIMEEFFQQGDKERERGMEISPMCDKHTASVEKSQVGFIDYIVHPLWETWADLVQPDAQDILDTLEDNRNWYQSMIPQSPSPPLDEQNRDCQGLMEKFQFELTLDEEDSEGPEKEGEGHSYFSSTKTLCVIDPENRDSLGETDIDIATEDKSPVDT

| IC50 [nM] | Compound |
| --- | --- |
| 178 | COc1ccc(-c2nc(SC)ncc2C(=O)Nc2c(Cl)cncc2Cl)cc1OC [Example 2, N-(3,5-dichloropyridine-4-yl)-4-(3,4-dimethoxyphenyl)-2-(methylthio)pyrimidine-5-carboxamide] |
| 95 | COc1ccc(-c2nc(SC)ncc2C(=O)Nc2ccncc2)cc1OC [Example 3, 4-(3,4-dimethoxyphenyl)-2-(methylthio)-N-(pyridine-4-yl)pyrimidine-5-carboxamide] |
| 166 | CSc1ncc(C(=O)NCCc2c[nH]c3ccccc23)c(N2CCOCC2)n1 [Example 4, N-(2-(1H-indole-3-yl)ethyl)-2-(methylthio)-4-morpholinopyrimidine-5-carboxamide] |
| 239 | COc1ccc(-c2nc(SC)ncc2C(=O)NC2CCOCC2)cc1OC [Example 5, 4-(3,4-dimethoxyphenyl)-2-(methylthio)-N-(tetrahydro-2H-pyran-4-yl)pyrimidine-5-carboxamide] |
| 367 | CSc1ncc(C(=O)Nc2ccc(F)cc2)c(N2CCOCC2)n1 [Example 6, N-(4-fluorophenyl)-2-(methylthio)-4-morpholinopyrimidine-5-carboxamide] |
| < 10 | COc1ccc(CCNC(=O)c2cnc(SC)nc2N2CCOCC2)cc1OC [Example 7, N-(3,4-dimethoxyphenetyl)-2-(methylthio)-4-morpholinopyrimidine-5-carboxamide] |
| 74 | COc1ccc(CNC(=O)c2cnc(C(F)(F)F)nc2N2CCOCC2)c(OC)c1 [Example 8, N-(2,4-dimethoxybenzyl)-4-morpholino-2-(trifluoromethyl)pyrimidine-5-carboxamide] |
| 377 | COc1ccc(CNC(=O)c2cnc(SC)nc2N2CCOCC2)c(OC)c1 [Example 9, N-(2,4-dimethoxybenzyl)-2-(methylthio)-4-morpholinopyrimidine-5-carboxamide] |
| 73 | CSc1ncc(C(=O)Nc2c(Cl)cncc2Cl)c(N2CCOCC2)n1 [Example 10, N-(3,5-dichloropyridine-4-yl)-2-(methylthio)-4-morpholinopyrimidine-5-carboxamide] |
| 67 | COc1ccc(NC(=O)c2cnc(C(F)(F)F)nc2N2CCOCC2)cc1OC [Example 11, N-(3,4-dimethoxyphenyl)-4-morpholino-2-(trifluoromethyl)pyrimidine-5-carboxamide] |
| 266 | COc1ccc(-c2nc(C(F)(F)F)ncc2C(=O)NC2CCOCC2)cc1OC [Example 12, 4-(3,4-dimethoxyphenyl)-N-(tetrahydro-2H-pyran-4-yl)-2-(trifluoromethyl)pyrimidine-5-carboxamide] |
| 833 | CCN(CC)C(=O)c1cnc(C(F)(F)F)nc1-c1ccc(OC)c(OC)c1 [Example 13, 4-(3,4-dimethoxyphenyl)-N,N-diethyl-2-(trifluoromethyl)pyrimidine-5-carboxamide] |
| 506 | COc1ccc(-c2nc(S(C)(=O)=O)ncc2C(=O)NC2CCOCC2)cc1OC [Example 14, 4-(3,4-dimethoxyphenyl)-2-(methylsulfonyl)-N-(tetrahydro-2H-pyran-4-yl)pyrimidine-5-carboxamide] |
| 252 | COc1ccc(-c2nc(C(F)(F)F)ncc2C(=O)NC2CC2)cc1OC [Example 15, N-cyclopropyl-4-(3,4-dimethoxyphenyl)-2-(trifluoromethyl)pyrimidine-5-carboxamide] |
| 44 | COc1ccc(-c2nc(C(F)(F)F)ncc2C(=O)Nc2c(Cl)cncc2Cl)cc1OC [Example 16, N-(3,5-dichloropyridine-4-yl)-4-(3,4-dimethoxyphenyl)-2-(trifluoromethyl)pyrimidine-5-carboxamide] |
| 477 | COc1ccc(-c2nc(SC)ncc2C(=O)NC2CC2)cc1OC [Example 18, N-cyclopropyl-4-(3,4-dimethoxyphenyl)-2-(methylthio)pyrimidine-5-carboxamide] |
| 189 | COc1ccc(-c2nc(S(C)(=O)=O)ncc2C(=O)NC2CC2)cc1OC [Example 19, N-cyclopropyl-4-(3,4-dimethoxyphenyl)-2-(methylsulfonyl)pyrimidine-5-carboxamide] |
| 745 | COc1ccc(-c2nc(SC)ncc2C(=O)Nc2cc(C(C)C)c(N)c(C(C)C)c2)cc1OC [Example 20, N-(4-amino-3,5-diisopropylphenyl)-4-(3,4-dimethoxyphenyl)-2-(methylthio)pyrimidine-5-carboxamide] |
| 222 | COc1ccc(-c2nc(C(F)(F)F)ncc2C(=O)Nc2cc(C(C)C)c(N)c(C(C)C)c2)cc1OC [Example 21, N-(4-amino-3,5-diisopropylphenyl)-4-(3,4-dimethoxyphenyl)-2-(trifluoromethyl)pyrimidine-5-carboxamide] |
| 881 | COc1ccc(NC(=O)c2cnc(SC)nc2N2CCN(CCO)CC2)cc1OC [Example 22, N-(3,4-dimethoxyphenyl)-4-(4-(2-hydroxyethyl)piperazine-1-yl)-2-(methylthio)pyrimidine-5-carboxamide] |
| 469 | O=C(NCCc1c[nH]c2ccccc12)c1cnc(C(F)(F)F)nc1N1CCOCC1 [Example 24, N-(2-(1H-indole-3-yl)ethyl)-4-morpholino-2-(trifluoromethyl)pyrimidine-5-carboxamide] |
| 195 | COc1ccc(-c2nc(C(F)(F)F)ncc2C(=O)NCCN2CCOCC2)cc1OC [Example 26, 4-(3,4-dimethoxyphenyl)-N-(2-morpholinoethyl)-2-(trifluoromethyl)pyrimidine-5-carboxamide] |
| 860 | COc1ccc(-c2nc(SC)ncc2C(=O)NCCN2CCOCC2)cc1OC [Example 27, 4-(3,4-dimethoxyphenyl)-2-(methylthio)-N-(2-morpholinoethyl)pyrimidine-5-carboxamide] |
| 634 | COc1ccc(NC(=O)c2cnc(SC)nc2-c2ccc(OC)c(OC)c2)cc1OC [Example 29, N,4-bis(3,4-dimethoxyphenyl)-2-(methylthio)pyrimidine-5-carboxamide] |
| 61 | COc1ccc(NC(=O)c2cnc(C(F)(F)F)nc2-c2ccc(OC)c(OC)c2)cc1OC [Example 30, N,4-bis(3,4-dimethoxyphenyl)-2-(trifluoromethyl)pyrimidine-5-carboxamide] |
